Laboratory results published in PMC8659243, “Design, Synthesis and Tumour-Selective Toxicity of Novel 1-[3-{3,5-Bis(benzylidene)-4-oxo-1-piperidino}-3-oxopropyl]-4-piperidone Oximes and Related Quaternary Ammonium Salts” (Molecules, 2021).
Where a name gives a salt, the structure may show the parent alone.

What was measured:
[1] = Cytotoxicity against non-malignant HPC cells, MTT method, 48 h; type: cell-based; details: human, pulp cells (HPC)
Protocol: (§1) A literature procedure was followed when the compounds in series 3 and 4 were evaluated against three human oral squamous cell carcinoma cell lines Ca9-22 (RCB-1976), HSC-2 (RCB1945), HSC-4 (RCB1902) (purchased from RIKEN Cell Bank, Tukuba, Japan) and three human normal oral cells, gingival fibroblast (HGF), periodontal ligament fibroblast (HPLF) and pulp cells (HPC) (established according to the guideline of the intramural ethic committee, A0808) except the duration of incubation was increased from 24 h to 48 h. In brief, various concentrations of the compounds were added to the DMEM media, which was supplemented by 10% heat-inactivated fetal bovine serum. Incubation was undertaken at 37 °C. At the completion of the experiment, cell viability was determined by the MTT method.

[2] = test system: leukemia cells; experiment: NCI in vitro screen, average of leukemia cells; type: cell-based; details: Homo sapiens
From the text: (§2) In view of the encouraging result with CEM leukemic cells, consideration was given to an assessment in the NCI in vitro screening program. The oximes, but not the quaternary ammonium salts, were accepted for bioevaluation. Examination of the mean graphs confirms the sensitivity of leukemic cells to these compounds.

[3] = Stability by 1H NMR in 9:1 deuterated dimethylsulfoxide and deuterium oxide; type: physicochemical; details: 37 °C
[4] = test system: colon cancer cells; experiment: NCI in vitro screen, average of colon cancer cells; type: cell-based; details: Homo sapiens
From the text: (§3) One particular reference drug is 5-fluorouracil, which is used in treating colon cancers.

[5] = test system: HSC-4 cells; experiment: Cytotoxicity against HSC-4 cells, MTT method, 48 h; type: cell-based, human; details: for CC50: Homo sapiens, HSC-4, concentration required to kill 50% of the cells, 48 h, MTT, read-out: CC50 HSC-4; for SI HSC-4: average CC50 towards HGF, HPLF, HPC divided by CC50 against HSC-4
Protocol: as §1

[6] = test system: Molt-4 cells; experiment: NCI in vitro screen, leukemia Molt-4; type: cell-based; details: Homo sapiens
From the text: as §2

[7] = test system: Ca9-22 cells; experiment: Cytotoxicity against Ca9-22 cells, MTT method, 48 h; type: cell-based, human; details: for CC50: Homo sapiens, Ca9-22, concentration required to kill 50% of the cells, 48 h, MTT, read-out: CC50 Ca9-22; for SI Ca9-22: average CC50 towards HGF, HPLF, HPC divided by CC50 against Ca9-22
Protocol: as §1

[8] = test system: HSC-2 cells; experiment: Cytotoxicity against HSC-2 cells, MTT method, 48 h; type: cell-based, human; details: for CC50: Homo sapiens, HSC-2, concentration required to kill 50% of the cells, 48 h, MTT; for SI HSC-2: average CC50 towards HGF, HPLF, HPC divided by CC50 against HSC-2
Protocol: as §1

[9] = test system: HL-60 (TB) cells; experiment: NCI in vitro screen, leukemia HL-60 (TB); type: cell-based; details: Homo sapiens
From the text: as §2

[10] = Cytotoxicity against non-malignant HGF cells, MTT method, 48 h; type: cell-based; details: human, gingival fibroblasts (HGF)
Protocol: as §1

[11] = test system: Colo205 cells; experiment: NCI in vitro screen, colon cancer Colo205; type: cell-based; details: Homo sapiens, COLO 205
From the text: as §3

[12] = test system: All Cell Lines; experiment: NCI in vitro screen, all cell lines; type: cell-based; details: Homo sapiens
From the text: as §3

[13] = test system: CEM T-lymphoblastic leukemia cells; experiment: Cytotoxicity against CEM cells, MTT method, 24 h; type: cell-based; details: Homo sapiens, CCRF-CEM, concentration required to inhibit cell growth by 50%
Protocol: The method used for the evaluation of various compounds against human CEM cells has been reported previously. In brief, cells were grown in RPMI-1640 medium supplemented with 10% heat-inactivated fetal bovine serum. Different concentrations of compounds were added to the media, and after 24 h incubation, cytotoxicity was measured by the MTT method.

[14] = test system: HCC-2998 cells; experiment: NCI in vitro screen, colon cancer HCC-2998; type: cell-based; details: Homo sapiens
From the text: as §3

[15] = test system: RPMI-8226 cells; experiment: NCI in vitro screen, leukemia RPMI-8226; type: cell-based; details: Homo sapiens
From the text: as §2

[16] = test system: K-562 cells; experiment: NCI in vitro screen, leukemia K-562; type: cell-based; details: Homo sapiens, K562
From the text: as §2

[17] = test system: HCT-116 cells; experiment: NCI in vitro screen, colon cancer HCT-116; type: cell-based; details: Homo sapiens
From the text: as §3

[18] = test system: SW-620 cells; experiment: NCI in vitro screen, colon cancer SW-620; type: cell-based; details: Homo sapiens
From the text: as §3

[19] = Cytotoxicity against non-malignant HPLF cells, MTT method, 48 h; type: cell-based; details: human, periodontal ligament fibroblasts (HPLF)
Protocol: as §1

[20] = Average over HGF, HPLF and HPC non-malignant cells; type: cell-based; details: human, HPLF and HPC non-malignant cells (average of the three)
Protocol: as §1

[21] = test system: Ca9-22, HSC-2 and HSC-4 cells; experiment: Average over Ca9-22, HSC-2 and HSC-4 neoplastic cells; type: cell-based, human; details: for CC50: Homo sapiens, average of Ca9-22, HSC-2 and HSC-4, read-out: Average CC50; for Average SI: average of SI for Ca9-22, HSC-2 and HSC-4
Protocol: In order to assess whether the compounds in series 3 and 4 are more toxic to neoplasms than non-malignant cells, selective index (SI) figures were calculated. In the in vivo situation, a tumour is surrounded by a number of non-malignant cells.
In order to identify the most promising lead compounds in terms of both cytotoxic potencies and favourable SI values, potency–selectivity expression (PSE) values were computed. […] Outstanding results may be noted for four compounds that have PSE values in excess of 100,000 namely 3d, 4c–e. […] However, the relative SI/PSE distribution patterns between series 3 and 4 (from a to h) are nearly superimposable with each other (Figure 3). […] It has been reported that 3,5-bis(3-iodo-5-methoxy-4-propoxybenzylidene)-N-acetylpiperidin-4-one inhibited tubulin and destabilization of microtubules, while 3,5-bis(3,4,5-trimethoxybenzylidene)-N-benzoylpiperidin-4-one destabilizes the microtubules. Thus, it remained to investigate whether compound 4d acts as an inhibitor of the microtubule.
as §1

[22] = test system: KM12 cells; experiment: NCI in vitro screen, colon cancer KM12; type: cell-based; details: Homo sapiens
From the text: as §3

[23] = test system: HCT-15 cells; experiment: NCI in vitro screen, colon cancer HCT-15; type: cell-based; details: Homo sapiens
From the text: as §3

[24] = test system: SR cells; experiment: NCI in vitro screen, leukemia SR; type: cell-based; details: Homo sapiens
From the text: as §2

[25] = test system: HT29 cells; experiment: NCI in vitro screen, colon cancer HT29; type: cell-based; details: Homo sapiens, HT-29
From the text: as §3

| Compound | CC50 at 48 h [1] [nM] | IC50 [2] [nM] | IC50 [4] [nM] | CC50 [5] [nM] | SI HSC-4 [5] | IC50 [6] [nM] | CC50 [7] [nM] | SI Ca9-22 [7] | CC50 [8] [nM] | SI HSC-2 [8] | IC50 [9] [nM] | CC50 at 48 h [10] [nM] | IC50 [11] [nM] | IC50 [12] [nM] | IC50 [13] [nM] | IC50 [14] [nM] | IC50 [15] [nM] | IC50 [16] [nM] | IC50 [17] [nM] | IC50 [18] [nM] | other results |
| --- | --- | --- | --- | --- | --- | --- | --- | --- | --- | --- | --- | --- | --- | --- | --- | --- | --- | --- | --- | --- | --- |
| O=C1/C(=C/c2ccccc2)CN(C(=O)CCN2CCC(=NO)CC2)C/C1=C\c1ccccc1 (as salt: hydrochloride) [Compound 3a, (3~{E},5~{E})-3,5-bis-benzylidine-1-[3-(4-hydroximino-1-piperidyl)propanoyl]piperidin-4-one hydrochloride] |  |  |  |  |  |  |  |  |  |  |  |  |  |  |  |  |  |  |  |  | melting point: 172.3 °C |
| O=C1/C(=C/c2ccccc2)CN(C(=O)CCN2CCC(=NO)CC2)C/C1=C\c1ccccc1 [Compound 3a, (3~{E},5~{E})-3,5-bis-benzylidine-1-[3-(4-hydroximino-1-piperidyl)propanoyl]piperidin-4-one hydrochloride] | 11500 ± 2570 | 850 | 1100 | 440 ± 160 | 25.0 | 690 | 650 ± 70 | 16.9 | 890 ± 60 | 12.4 | 2600 | 7110 ± 470 | 1700 | 1510 | 5390 ± 260 | 1740 | 320 | 400 | 680 | 320 | stability: 1H NMR spectra in dissolution and after 48 h incubation [3]: identical; CC50 at 48 h [19]: 14300 ± 3790 nM; CC50 at 48 h [20]: 11000 nM; CC50 [21]: 660 nM; Average SI [21]: 18.1; IC50 [22]: 660 nM; IC50 [23]: 1380 nM; IC50 [24]: 330 nM; IC50 [25]: 1200 nM |
| O=C1/C(=C/c2ccc(Cl)c(Cl)c2)CN(C(=O)CCN2CCC(=NO)CC2)C/C1=C\c1ccc(Cl)c(Cl)c1 [Compound 3d, (3~{E},5~{E})-3,5-bis[(3,4-dichlorophenyl)methylene]-1-[3-(4-hydroximino-1-piperidyl)propanoyl]piperidin-4-one hydrochloride] | 4970 ± 890 | 370 | 310 | 70 | 51.3 | 320 | 20 ± 10 | 180 | 100 ± 20 | 35.9 | 1000 | 1910 ± 220 | 390 | 1300 | 8490 ± 340 | 360 | 230 | 250 | 320 | 230 | CC50 at 48 h [19]: 3900 ± 1420 nM; CC50 at 48 h [20]: 3590 nM; CC50 [21]: 60 nM; Average SI [21]: 89.1; IC50 [22]: 250 nM; IC50 [23]: 270 nM; IC50 [24]: 100 nM; IC50 [25]: 320 nM |
| O=C1/C(=C/c2ccc([N+](=O)[O-])cc2)CN(C(=O)CCN2CCC(=NO)CC2)C/C1=C\c1ccc([N+](=O)[O-])cc1 [Compound 3e, (3~{E},5~{E})-1-[3-(4-hydroximino-1-piperidyl)propanoyl]-3,5-bis[(4-nitrophenyl)methylene]piperidin-4-one] | 5070 ± 210 | 500 | 460 | 90 ± 20 | 36.3 | 400 | 30 | 109 | 120 ± 90 | 27.3 | 1550 | 1670 ± 310 | 400 | 1790 | 11600 ± 310 | 1170 | 300 | 280 | 490 | 200 | CC50 at 48 h [19]: 3060 ± 160 nM; CC50 at 48 h [20]: 3270 nM; CC50 [21]: 80 nM; Average SI [21]: 57.5; IC50 [22]: 290 nM; IC50 [23]: 360 nM; IC50 [24]: 100 nM; IC50 [25]: 330 nM |
| Cc1ccc(/C=C2\CN(C(=O)CCN3CCC(=NO)CC3)C/C(=C\c3ccc(C)cc3)C2=O)cc1 [Compound 3f, (3~{E},5~{E})-3,5-bis[(4-methylphenyl)methylene]-1-[3-(4-hydroximino-1-piperidyl)propanoyl]piperidin-4-one hydrochloride] | 7850 ± 7100 | 550 | 650 | 430 ± 120 | 16.7 | 370 | 470 ± 40 | 15.3 | 750 ± 40 | 9.57 | 1700 | 5700 ± 650 | 1150 | 1230 | 8420 ± 1100 | 1580 | 300 | 320 | 360 | 290 | CC50 at 48 h [19]: 8000 ± 200 nM; CC50 at 48 h [20]: 7180 nM; CC50 [21]: 550 nM; Average SI [21]: 13.9; IC50 [22]: 280 nM; IC50 [23]: 550 nM; IC50 [24]: 310 nM; IC50 [25]: 350 nM |
| COc1ccc(/C=C2\CN(C(=O)CCN3CCC(=NO)CC3)C/C(=C\c3ccc(OC)cc3)C2=O)cc1 [Compound 3g, (3~{E},5~{E})-3,5-bis[(4-methoxyphenyl)methylene]-1-[3-(4-hydroximino-1-piperidyl)propanoyl]piperidin-4-one hydrochloride] | 13600 ± 600 | 1880 | 1840 | 650 ± 20 | 16.6 | 2950 | 590 ± 60 | 18.3 | 1560 ± 550 | 6.92 | 2820 | 6630 ± 60 | 2040 | 1280 | 4350 ± 200 | 1860 | 650 | 1200 | 1740 | 1380 | CC50 at 48 h [19]: 12100 ± 1790 nM; CC50 at 48 h [20]: 10800 nM; CC50 [21]: 930 nM; Average SI [21]: 13.9; IC50 [22]: 1740 nM; IC50 [23]: 2140 nM; IC50 [24]: 620 nM; IC50 [25]: 2040 nM |
| COc1cc(/C=C2\CN(C(=O)CCN3CCC(=NO)CC3)C/C(=C\c3cc(OC)c(OC)c(OC)c3)C2=O)cc(OC)c1OC [Compound 3h, (3~{E},5~{E})-1-[3-(4-hydroximino-1-piperidyl)propanoyl]-3,5-bis[(3,4,5-trimethoxyphenyl)methylene]piperidin-4-one] | 1800 ± 600 | 300 | 390 | 300 ± 150 | 10.2 | 290 | 70 ± 30 | 43.9 | 230 ± 20 | 13.4 | 270 | 2180 ± 230 | 260 | 1220 | 2310 ± 300 | 210 | 320 | 320 | 210 | 300 | CC50 at 48 h [19]: 5220 ± 690 nM; CC50 at 48 h [20]: 3070 nM; CC50 [21]: 200 nM; Average SI [21]: 22.5; IC50 [22]: 200 nM; IC50 [23]: 1230 nM; IC50 [24]: 300 nM; IC50 [25]: 330 nM |
